Data from the NIST ThermoML archive (doi:10.1016/j.jct.2016.10.034).

Key:
[1] = xn = mol fraction of the nth substance listed; details: 100 kPa, Liquid, x2 = 0; for viscosity: Falling or rolling sphere viscometry; for mass density: Vibrating tube method
[2] = for viscosity / mass density: 100 kPa, Liquid; for viscosity: Falling or rolling sphere viscometry; for mass density: Vibrating tube method; for Glass transition temperature: DSC

O [water] + CC[N+]1(C)CCCC1.O=C([O-])CO
[1]
Details | mass density [kg/m3] | viscosity [mPa·s]
298.15 K | – | 0.89
303.15 K | – | 0.797
308.15 K | – | 0.719
313.15 K | – | 0.653
318.15 K | – | 0.596
323.15 K | 987.9 | 0.547
328.15 K | 985.7 | 0.504
333.15 K | 983.2 | 0.466
338.15 K | 980.3 | 0.433
343.15 K | 978.1 | 0.404
348.15 K | 974.8 | 0.378

CC(=O)[O-].CC[N+]1(C)CCCC1 [1-ethyl-1-methylpyrrolidinium acetate]
[2]
Details | mass density [kg/m3] | viscosity [mPa·s]
298.15 K | 1064.5 | 240
303.15 K | 1061.8 | 184
308.15 K | 1058.7 | 145
313.15 K | 1055.9 | 117
318.15 K | 1053.1 | 93.4
323.15 K | 1050.3 | 74
328.15 K | 1047.4 | 60
333.15 K | 1044.4 | 49.2
338.15 K | 1041.8 | 39.4
343.15 K | 1038.8 | 32.4
348.15 K | 1035.9 | 26

Details | Glass transition temperature [°C]
[2] | -88

CC[N+]1(C)CCOCC1.O=C([O-])CO [N-ethyl-N-methylmorpholinium glycolate]
[2]
Details | mass density [kg/m3] | viscosity [mPa·s]
298.15 K | 1232.6 | –
303.15 K | 1229.5 | –
308.15 K | 1226.3 | –
313.15 K | 1223 | –
318.15 K | 1219.8 | 2500
323.15 K | 1216.5 | 1799
328.15 K | 1213.3 | 1155
333.15 K | 1210.1 | 854
338.15 K | 1207.2 | 666
343.15 K | 1204.1 | 488
348.15 K | 1201.1 | 363

Details | Glass transition temperature [°C]
[2] | -59

O [water] + CC[N+]1(C)CCOCC1.O=C([O-])CO
[1]
Details | mass density [kg/m3] | viscosity [mPa·s]
298.15 K | – | 0.89
303.15 K | – | 0.797
308.15 K | – | 0.719
313.15 K | – | 0.653
318.15 K | – | 0.596
323.15 K | 987.9 | 0.547
328.15 K | 985.7 | 0.504
333.15 K | 983.2 | 0.466
338.15 K | 980.3 | 0.433
343.15 K | 978.1 | 0.404
348.15 K | 974.8 | 0.378

O [water] + CC(=O)[O-].CC[N+]1(C)CCCC1
[1]
Details | mass density [kg/m3] | viscosity [mPa·s]
298.15 K | – | 0.89
303.15 K | – | 0.797
308.15 K | – | 0.719
313.15 K | – | 0.653
318.15 K | – | 0.596
323.15 K | 987.9 | 0.547
328.15 K | 985.7 | 0.504
333.15 K | 983.2 | 0.466
338.15 K | 980.3 | 0.433
343.15 K | 978.1 | 0.404
348.15 K | 974.8 | 0.378

CC[N+]1(C)CCCC1.O=C([O-])CO [1-ethyl-1-methylpyrrolidinium glycolate]
[2]
Details | mass density [kg/m3] | viscosity [mPa·s]
298.15 K | 1134 | 345
303.15 K | 1130.7 | 254
308.15 K | 1127.3 | 192
313.15 K | 1124 | 151
318.15 K | 1120.8 | 116
323.15 K | 1117.6 | 92.2
328.15 K | 1114.4 | 76.9
333.15 K | 1111.2 | 60.6
338.15 K | 1108.1 | 49.6
343.15 K | 1105 | 41.2
348.15 K | 1101.9 | 34.2

Details | Glass transition temperature [°C]
[2] | -80
